Measured values taken from patent US10538555B2, “Macrocyclic inhibitors of the PD-1/PD-L1 and CD80(B7-1)/PD-L1 protein/protein interactions” (BRISTOL-MYERS SQUIBB COMPANY, priority 2014, dated 2020).
*1 amine or outer side, *2 acyl side, *3 side chain or, on linkers, in order; H or OH if unused. Where a SMILES comes first, the peptide text is derived from it. Bridges are numbered along the chain shown (N, C = ends). [ ]: non-standard residue; d: D form. ξ: configuration not given here. Trp(1-CH2COOH) = N[C@@H](Cc1cn(CC(=O)O)c2ccccc12)C(=O)O; Phe(3,4,5-F3) = N[C@@H](Cc1cc(F)c(F)c(F)c1)C(=O)O; Phe(3,4-F2) = N[C@@H](Cc1ccc(F)c(F)c1)C(=O)O; d(cisHyp) = O=C(O)[C@H]1C[C@@H](O)CN1; NMeY = CN[C@@H](Cc1ccc(O)cc1)C(=O)O; Hyp = O=C(O)[C@@H]1C[C@@H](O)CN1; NMeF = CN[C@@H](Cc1ccccc1)C(=O)O; X1 = O=C([C@H]1COCCN1[*:1])[*:2]; dNMeF = CN[C@H](Cc1ccccc1)C(=O)O; αMeF = C[C@](N)(Cc1ccccc1)C(=O)O; NMeNle = CCCC[C@H](NC)C(=O)O; Pip = O=C(O)[C@@H]1CCCCN1; dPip = O=C(O)[C@H]1CCCCN1; hSer = N[C@@H](CCO)C(=O)O; NMeA = CN[C@@H](C)C(=O)O; Orn = NCCC[C@H](N)C(=O)O; dThz = O=C(O)[C@H]1CSCN1; Dab = NCC[C@H](N)C(=O)O; Dap = NC[C@H](N)C(=O)O; ξC = NC(CS)C(=O)O

biological target: T1, Human PD-L1/PD-1 (Homo sapiens, UniProt Q9NZQ7); assay: HTRF Human PD-L1/PD-1 binding assay (PD-1-Ig/PD-L1-His); settings: PD-L1-His 10 nM, PD-1-Ig 20 nM; class symbol; read-out: HTRF Human PD-L1/PD-1 Binding Assay IC50 Range
T1 construct: TVMV protease cleavage site (C); made in house; host or cells: HEK293T cells
Summary of the method: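 Truncated Fc-fused human PD-1 (aa 25-167) at 20 nM and His-tagged PD-L1 (aa 18-239) at 10 nM final are used, with peptides preincubated 15 min with PD-L1. Detection uses europium-cryptate anti-Ig and APC anti-His antibodies; 665/620 nm ratio.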

T1 sequence (Q9NZQ7 with tags, fused parts or gaps): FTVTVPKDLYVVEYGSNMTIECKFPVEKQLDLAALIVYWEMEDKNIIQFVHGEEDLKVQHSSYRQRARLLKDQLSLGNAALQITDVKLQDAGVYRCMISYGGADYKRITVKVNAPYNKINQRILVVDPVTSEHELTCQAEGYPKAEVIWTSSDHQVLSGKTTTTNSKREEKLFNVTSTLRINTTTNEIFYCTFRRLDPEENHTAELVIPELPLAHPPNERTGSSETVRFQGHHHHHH

SMILES	IC50
CCCC[C@H]1C(=O)N2C[C@H](O)C[C@@H]2C(=O)N[C@@H](CC(=O)O)C(=O)N[C@@H](C(C)C)C(=O)N(C)[C@@H](Cc2ccccc2)C(=O)N[C@@H](CCC(=O)O)C(=O)N2C[C@H](O)C[C@@H]2C(=O)N[C@@H](Cc2c[nH]c3ccccc23)C(=O)N[C@@H](Cc2ccc(O)cc2)C(=O)N[C@@H](CC(C)C)C(=O)N[C@H](C(=O)NCC(N)=O)CSCC(=O)N[C@@H](Cc2cc(F)c(F)c(F)c2)C(=O)N(C)[C@@H](Cc2ccccc2)C(=O)N1C [Example 9330] ({CH2CO}-[Phe(3,4,5-F3)][NMeF][NMeNle][d(cisHyp)]DV[NMeF]E[d(cisHyp)]WYLCG-NH2; thioether N-13)	0.01 to 0.0999 µM
CCCC[C@H]1C(=O)N(C)[C@@H](CCCC)C(=O)N[C@@H](CCC(=O)O)C(=O)N[C@H](C(=O)NCC(N)=O)CSCC(=O)N[C@@H](Cc2ccc(OC)cc2)C(=O)N(C)[C@@H](C)C(=O)N[C@@H](CC(=O)O)C(=O)N2CCC[C@H]2C(=O)N[C@@H](Cc2cnc[nH]2)C(=O)N[C@@H](CCC(=O)O)C(=O)N2C[C@H](O)C[C@H]2C(=O)N[C@@H](Cc2c[nH]c3ccccc23)C(=O)N[C@@H](CC(=O)O)C(=O)N[C@@H](Cc2c[nH]c3ccccc23)C(=O)N1C [Example 7125] ({CH2CO}-Y(Me)[NMeA]DPHE[Hyp]WDW[NMeNle][NMeNle]ECG-NH2; thioether N-14)	0.01 to 0.0999 µM
CCCC[C@H]1C(=O)N[C@@H](CC(N)=O)C(=O)N2CCC[C@H]2C(=O)N[C@@H](CO)C(=O)N[C@@H](CCO)C(=O)N2CCC[C@H]2C(=O)N[C@@H](Cc2c[nH]c3ccccc23)C(=O)N[C@@H](CCN)C(=O)N[C@@H](Cc2c[nH]c3ccccc23)C(=O)N(C)[C@@H](C)C(=O)N(C)[C@@H](C)C(=O)N[C@@H](CCCNC(=N)N)C(=O)NC(C(=O)NCC(N)=O)CSCC(=O)N[C@@H](Cc2ccc(O)cc2)C(=O)N1C (some centres unmarked) [Example 10203] ({CH2CO}-Y[NMeNle]NPS[hSer]PW[Dab]W[NMeA][NMeA]R[ξC]G-NH2; thioether N-14)	1 to 10 µM
CCCC[C@H]1C(=O)N2CSC[C@@H]2C(=O)N[C@@H](CO)C(=O)N[C@@H](C(C)C)C(=O)N(C)[C@@H](Cc2ccccc2)C(=O)N[C@@H](Cc2ccc(O)cc2)C(=O)N2CCC[C@@H]2C(=O)N[C@@H](Cc2c[nH]c3ccccc23)C(=O)N[C@@H](Cc2ccc(O)cc2)C(=O)N[C@@H](CC(C)C)C(=O)N[C@H](C(=O)NCC(N)=O)CSCC(=O)N[C@@H](Cc2ccccc2)C(=O)N(C)[C@@H](Cc2ccccc2)C(=O)N1C [Example 10074] ({CH2CO}-F[NMeF][NMeNle][dThz]SV[NMeF]Y[dP]WYLCG-NH2; thioether N-13)	0.01 to 0.0999 µM
CCCC[C@H]1C(=O)N2CCC[C@@H]2C(=O)N[C@@H](CC(=O)O)C(=O)N[C@@H](C(C)C)C(=O)N[C@@](C)(Cc2ccccc2)C(=O)N[C@@H](Cc2ccc(O)cc2)C(=O)N2CCCC[C@@H]2C(=O)N[C@@H](Cc2c[nH]c3ccccc23)C(=O)N[C@@H](Cc2ccc(O)cc2)C(=O)N[C@@H](CC(C)C)C(=O)N[C@H](C(=O)NCC(N)=O)CSCC(=O)N[C@@H](Cc2ccccc2)C(=O)N(C)[C@@H](Cc2ccccc2)C(=O)N1C [Example 3220] ({CH2CO}-F[NMeF][NMeNle][dP]DV[αMeF]Y[dPip]WYLCG-NH2; thioether N-13)	0.01 to 0.0999 µM
CCCC[C@H]1C(=O)N(C)[C@@H](CCCC)C(=O)N[C@@H](CCCNC(=N)N)C(=O)N[C@H](C(=O)NCC(N)=O)CSCC(=O)N[C@@H](Cc2ccc(F)c(F)c2)C(=O)N(C)[C@@H](C)C(=O)N[C@@H](CC(N)=O)C(=O)N2CCC[C@H]2C(=O)N[C@@H](CN)C(=O)N[C@@H](CC(C)C)C(=O)N2C[C@H](O)C[C@H]2C(=O)N[C@@H](Cc2c[nH]c3ccccc23)C(=O)N[C@@H](CO)C(=O)N[C@@H](Cc2c[nH]c3ccccc23)C(=O)N1C [Example 7068] ({CH2CO}-[Phe(3,4-F2)][NMeA]NP[Dap]L[Hyp]WSW[NMeNle][NMeNle]RCG-NH2; thioether N-14)	0.01 to 0.0999 µM

The remaining lines, values ahead:

IC50	SMILES
0.001 to 0.0099 µM	CCCC[C@H]1C(=O)N(C)[C@@H](CCCC)C(=O)N[C@@H](CN)C(=O)N[C@H](C(=O)NCC(N)=O)CSCC(=O)N[C@@H](Cc2ccc(O)cc2)C(=O)N2CCCC[C@H]2C(=O)N[C@@H](CC(N)=O)C(=O)N2CCC[C@H]2C(=O)N[C@@H](Cc2cnc[nH]2)C(=O)N[C@@H](CCC(N)=O)C(=O)N2C[C@H](O)C[C@H]2C(=O)N[C@@H](Cc2c[nH]c3ccccc23)C(=O)N[C@@H](CCN)C(=O)N[C@@H](Cc2cn(CC(=O)O)c3ccccc23)C(=O)N1C [Example 1298] ({CH2CO}-Y[Pip]NPHQ[Hyp]W[Dab][Trp(1-CH2COOH)][NMeNle][NMeNle][Dap]CG-NH2; thioether N-14)
0.001 to 0.0099 µM	CCCC[C@H]1C(=O)N2C[C@H](O)C[C@@H]2C(=O)N[C@@H](CC(=O)O)C(=O)N[C@@H](C(C)C)C(=O)N(C)[C@@H](Cc2ccccc2)C(=O)N[C@@H](CCC(=O)O)C(=O)N2C[C@H](O)C[C@@H]2C(=O)N[C@@H](Cc2c[nH]c3ccccc23)C(=O)N[C@@H](Cc2ccc(O)cc2)C(=O)N[C@@H](CC(N)=O)C(=O)N[C@H](C(=O)NCC(N)=O)CSCC(=O)N[C@@H](Cc2cc(F)c(F)c(F)c2)C(=O)N(C)[C@@H](Cc2ccccc2)C(=O)N1C [Example 9338] ({CH2CO}-[Phe(3,4,5-F3)][NMeF][NMeNle][d(cisHyp)]DV[NMeF]E[d(cisHyp)]WYNCG-NH2; thioether N-13)
0.01 to 0.0999 µM	CCCC[C@H]1C(=O)N2CCC[C@@H]2C(=O)N[C@@H](CC(=O)O)C(=O)N[C@@H](C(C)C)C(=O)N(C)[C@@H](Cc2ccccc2)C(=O)N[C@@H](CCC(=O)O)C(=O)N2C[C@H](O)C[C@@H]2C(=O)N[C@@H](Cc2c[nH]c3ccccc23)C(=O)N[C@@H](Cc2ccc(O)cc2)C(=O)N[C@@H](CCC(=O)O)C(=O)N[C@H](C(=O)NCC(N)=O)CSCC(=O)N[C@@H](Cc2cc(F)c(F)c(F)c2)C(=O)N(C)[C@@H](Cc2ccc(O)cc2)C(=O)N1C [Example 10633] ({CH2CO}-[Phe(3,4,5-F3)][NMeY][NMeNle][dP]DV[NMeF]E[d(cisHyp)]WYECG-NH2; thioether N-13)
0.001 to 0.0099 µM	CCCC[C@H]1C(=O)N2C[C@H](O)C[C@@H]2C(=O)N[C@@H](CC(=O)O)C(=O)N[C@@H](C(C)C)C(=O)N(C)[C@H](Cc2ccccc2)C(=O)N[C@@H](CCCCN)C(=O)N2C[C@H](O)C[C@@H]2C(=O)N[C@@H](Cc2c[nH]c3ccccc23)C(=O)N[C@@H](Cc2ccc(O)cc2)C(=O)N[C@@H](CC(C)C)C(=O)N[C@H](C(=O)NCC(N)=O)CSCC(=O)N[C@@H](Cc2ccc(F)c(F)c2)C(=O)N(C)[C@@H](Cc2ccccc2)C(=O)N1C [Example 9295] ({CH2CO}-[Phe(3,4-F2)][NMeF][NMeNle][d(cisHyp)]DV[dNMeF]K[d(cisHyp)]WYLCG-NH2; thioether N-13)
0.001 to 0.0099 µM	CCCC[C@H]1C(=O)N2C[C@H](O)C[C@@H]2C(=O)N[C@@H](CC(=O)O)C(=O)N[C@@H](C(C)C)C(=O)N(C)[C@@H](Cc2ccccc2)C(=O)N[C@@H](CCCN)C(=O)N2CCOC[C@@H]2C(=O)N[C@@H](Cc2c[nH]c3ccccc23)C(=O)N[C@@H](Cc2ccc(O)cc2)C(=O)N[C@@H](CCO)C(=O)N[C@H](C(=O)NCC(N)=O)CSCC(=O)N[C@@H](Cc2cc(F)c(F)c(F)c2)C(=O)N(C)[C@@H](Cc2ccccc2)C(=O)N1C [Example 10158] ({CH2CO}-[Phe(3,4,5-F3)][NMeF][NMeNle][d(cisHyp)]DV[NMeF][Orn][X1]WY[hSer]CG-NH2; thioether N-13)
